This is an account of results in ChEMBL document CHEMBL1828567, “2-Phenyl and 2-heterocyclic-4-(3-(pyridin-2-yl)-1H-pyrazol-4-yl)pyridines as inhibitors of TGF-β1 and activin A signalling” (Bioorg Med Chem Lett, 2011).

Bounds are passed on as bounds.

The target of test [1] is T1, Activin receptor type-1B (Homo sapiens, UniProt P36896).
T1 sequence (P36896 whole entry): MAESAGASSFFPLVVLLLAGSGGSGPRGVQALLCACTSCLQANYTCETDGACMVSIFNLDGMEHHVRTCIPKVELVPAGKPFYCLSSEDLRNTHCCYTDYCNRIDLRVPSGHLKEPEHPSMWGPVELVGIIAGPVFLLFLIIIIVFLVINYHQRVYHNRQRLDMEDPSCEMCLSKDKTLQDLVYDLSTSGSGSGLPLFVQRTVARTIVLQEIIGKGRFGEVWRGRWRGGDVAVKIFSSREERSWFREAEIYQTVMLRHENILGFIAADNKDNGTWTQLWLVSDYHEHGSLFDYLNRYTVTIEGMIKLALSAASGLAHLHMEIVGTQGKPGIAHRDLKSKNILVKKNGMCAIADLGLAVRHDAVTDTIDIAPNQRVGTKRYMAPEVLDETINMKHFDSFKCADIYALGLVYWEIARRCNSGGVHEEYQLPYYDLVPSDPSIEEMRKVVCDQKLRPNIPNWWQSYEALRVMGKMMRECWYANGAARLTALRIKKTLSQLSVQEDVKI
The test can be described thus: Inhibition of Activin A in human HEK293 cells transfected with luciferase and FAST-2 gene expression vector A3-LUX after 16 hrs by luciferase reporter gene assay. Format: cell-based. For orientation: A reporter such as luciferase makes a cellular process visible.

The target of test [2] is T2, TGF-beta receptor type-1 (Homo sapiens, UniProt P36897).
T2 sequence (P36897 whole entry): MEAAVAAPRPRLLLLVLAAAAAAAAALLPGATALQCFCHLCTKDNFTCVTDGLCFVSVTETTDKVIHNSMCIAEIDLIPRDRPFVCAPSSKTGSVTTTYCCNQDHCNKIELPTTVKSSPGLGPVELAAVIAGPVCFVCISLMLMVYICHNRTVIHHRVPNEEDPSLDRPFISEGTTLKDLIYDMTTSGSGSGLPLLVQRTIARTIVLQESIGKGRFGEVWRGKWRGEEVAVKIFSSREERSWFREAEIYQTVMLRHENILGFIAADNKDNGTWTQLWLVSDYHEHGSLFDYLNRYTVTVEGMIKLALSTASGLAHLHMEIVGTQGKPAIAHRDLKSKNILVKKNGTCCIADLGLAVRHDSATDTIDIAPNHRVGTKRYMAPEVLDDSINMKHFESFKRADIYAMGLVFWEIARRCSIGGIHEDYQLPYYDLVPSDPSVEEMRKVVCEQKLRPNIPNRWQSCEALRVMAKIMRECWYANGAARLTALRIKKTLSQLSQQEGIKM
Nature of the test: Inhibition of TGF-beta1 signaling in human HEK293 cells transfected with luciferase and FAST-2 gene expression vector A3-LUX after 16 hrs by luciferase reporter gene assay. Format: cell-based.

As usually defined, the IC50 is the concentration that inhibits the measured activity by half. Low readings indicate higher potency, high ones lower potency. `O=C(NC1CCOCC1)c1ccc(-c2cc(-c3c[nH]nc3-c3ccccn3)ccn2)cc1` showed an IC50 in test [1] above 1 µM.

In turn, `CN1CCN(c2ccc(-c3cc(-c4c[nH]nc4-c4ccccn4)ccn3)cn2)CC1` came in with an IC50 in test [2] of 0.032 µM. `c1ccc(-c2n[nH]cc2-c2ccnc(-n3cccn3)c2)nc1`: in test [2], the 50% inhibitory concentration (IC50) was determined as 0.077 µM.

In turn, `c1ccc(-c2n[nH]cc2-c2ccnc(-n3ccnc3)c2)nc1` returned an IC50 in test [2] of 0.088 µM. On the same count and under the same terms, for `Cn1cc(-c2cc(-c3c[nH]nc3-c3ccccn3)ccn2)cn1` the value was 0.068 µM; for `CN(C)CCCOc1ccc(-c2cc(-c3c[nH]nc3-c3ccccn3)ccn2)cn1`, 0.011 µM; for `CN(C)CCOc1ccc(-c2cc(-c3c[nH]nc3-c3ccccn3)ccn2)cc1`, 0.019 µM.
